Test results published in ChEMBL document CHEMBL1201862, “PubChem BioAssay data set” (2004).
Activity calls are given as the source filed them.

How the values were obtained:
[1] = target: T1, Carboxy-terminal domain RNA polymerase II polypeptide A small phosphatase 1 (Homo sapiens, UniProt Q9GZU7); assay: CTDSP1 inhibitors, concentration-response, biochemical, absorbance readout, ultra-high-throughput screen actives (AID 540297); type: functional
T1 sequence (Q9GZU7 whole entry): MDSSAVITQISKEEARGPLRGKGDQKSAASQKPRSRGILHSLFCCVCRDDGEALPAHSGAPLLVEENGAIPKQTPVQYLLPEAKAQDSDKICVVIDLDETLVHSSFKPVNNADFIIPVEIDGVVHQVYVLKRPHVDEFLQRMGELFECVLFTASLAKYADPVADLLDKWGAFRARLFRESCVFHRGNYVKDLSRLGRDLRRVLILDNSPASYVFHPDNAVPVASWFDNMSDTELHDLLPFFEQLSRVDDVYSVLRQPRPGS

[2] = target: 26S proteasome non-ATPase regulatory subunit 14 (Homo sapiens, UniProt O00487); assay: inhibition of proteasome subunit RPN11 – biochemical, fluorescence polarization, uHTS hits, confirmation (AID 602368); type: functional
Chain of 26S proteasome non-ATPase regulatory subunit 14 (O00487 whole entry): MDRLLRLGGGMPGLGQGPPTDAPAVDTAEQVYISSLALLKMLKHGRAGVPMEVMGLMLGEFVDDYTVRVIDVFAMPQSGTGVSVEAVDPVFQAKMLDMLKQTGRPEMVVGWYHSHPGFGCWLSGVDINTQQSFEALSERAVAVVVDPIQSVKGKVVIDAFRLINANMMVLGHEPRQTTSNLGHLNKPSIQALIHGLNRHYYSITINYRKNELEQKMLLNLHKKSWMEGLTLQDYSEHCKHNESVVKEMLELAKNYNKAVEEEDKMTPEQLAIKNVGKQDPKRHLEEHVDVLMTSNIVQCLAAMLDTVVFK

[3] = target: 72 kDa type IV collagenase (Homo sapiens, UniProt P08253); assay: Dose Response validation of uHTS RPN11 inhibitor hits using a MMP-2 Fluorescence assay.; type: functional
Chain of 72 kDa type IV collagenase (P08253 whole entry): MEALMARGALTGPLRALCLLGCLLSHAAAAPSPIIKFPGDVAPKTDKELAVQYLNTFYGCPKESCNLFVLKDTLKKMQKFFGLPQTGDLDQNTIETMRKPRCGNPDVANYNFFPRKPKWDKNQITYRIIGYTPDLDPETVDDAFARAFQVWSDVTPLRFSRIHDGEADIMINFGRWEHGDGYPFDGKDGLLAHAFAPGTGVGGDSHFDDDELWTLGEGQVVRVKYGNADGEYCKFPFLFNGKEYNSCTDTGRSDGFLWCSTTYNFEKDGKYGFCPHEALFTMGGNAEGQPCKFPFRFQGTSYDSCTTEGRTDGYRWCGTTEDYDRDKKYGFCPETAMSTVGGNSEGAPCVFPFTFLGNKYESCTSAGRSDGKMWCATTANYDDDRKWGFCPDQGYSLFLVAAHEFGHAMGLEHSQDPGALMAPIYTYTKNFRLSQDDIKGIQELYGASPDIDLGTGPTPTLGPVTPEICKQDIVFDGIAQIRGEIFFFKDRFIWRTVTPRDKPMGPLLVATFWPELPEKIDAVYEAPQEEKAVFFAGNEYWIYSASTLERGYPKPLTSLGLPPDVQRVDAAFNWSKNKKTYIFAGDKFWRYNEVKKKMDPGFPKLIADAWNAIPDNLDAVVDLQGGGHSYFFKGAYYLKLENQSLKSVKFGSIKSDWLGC

Prothrombin = Prothrombin (Bos taurus, UniProt P00735); assay: thrombin protease inhibitors – biochemical, fluorescence polarization, uHTS hits, dose response (AID 602369); type: functional
[4] = test system: Streptococcus sp. 'group A'; assay: Streptococcus pyogenes SK(-)GAS viability under kanamycin – luminescence, BacTiterGlo, confirmation, counter-screen for streptokinase expression inhibitor project, dose response (AID 1900); type: functional, organism-based
Streptococcus = assay: GAS UMAA2166 growth inhibition – luminescence, BacTiterGlo, counter-screen for streptokinase expression inhibitor project, dose response (AID 1915); type: functional, organism-based;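 note: potency for reduction of bacterial viability or growth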
[5] = target: T2, High affinity choline transporter 1 (Homo sapiens, UniProt Q9GZV3); assay: human choline transporter blockers, potency – cell-based, 5-point CRC, membrane potential dye, dose response (AID 504840); type: functional
T2 sequence (Q9GZV3 whole entry): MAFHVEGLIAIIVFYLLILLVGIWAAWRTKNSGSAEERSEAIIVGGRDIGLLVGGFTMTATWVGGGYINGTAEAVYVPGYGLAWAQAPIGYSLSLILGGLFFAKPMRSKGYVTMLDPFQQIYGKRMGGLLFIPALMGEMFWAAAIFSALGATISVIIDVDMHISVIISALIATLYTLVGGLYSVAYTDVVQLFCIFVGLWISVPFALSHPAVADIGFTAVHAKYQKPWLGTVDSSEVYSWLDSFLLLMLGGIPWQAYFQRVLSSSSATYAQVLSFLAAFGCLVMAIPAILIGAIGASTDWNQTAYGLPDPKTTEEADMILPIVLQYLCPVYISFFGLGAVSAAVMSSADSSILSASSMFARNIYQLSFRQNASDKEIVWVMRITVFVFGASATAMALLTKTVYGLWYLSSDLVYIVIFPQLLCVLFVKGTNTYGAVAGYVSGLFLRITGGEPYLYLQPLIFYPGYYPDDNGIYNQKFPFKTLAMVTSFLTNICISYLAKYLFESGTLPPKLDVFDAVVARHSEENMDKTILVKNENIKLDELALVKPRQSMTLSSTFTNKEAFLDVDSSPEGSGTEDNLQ

[6] = HEK-293T viability loss after treatment – luminescence, T-cell screen hits, cytotoxicity control for TCR NF-kB inhibitor project, dose response (AID 489026); type: functional, cell-based;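 note: cells exposed to compound about 14 hours before the viability readout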
[7] = target: T3, Microphthalmia-associated transcription factor (Homo sapiens, UniProt O75030); assay: reducers of TRPM1 reporter luminescence, concentration series – cell-based, SK-MEL-5, cherry-picked, set 3, MITF inhibitor project, dose response (AID 493073); type: functional;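 note: SK-MEL-5 melanoma cells with luciferase driven by the MITF target TRPM1 promoter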
T3 sequence (O75030 whole entry): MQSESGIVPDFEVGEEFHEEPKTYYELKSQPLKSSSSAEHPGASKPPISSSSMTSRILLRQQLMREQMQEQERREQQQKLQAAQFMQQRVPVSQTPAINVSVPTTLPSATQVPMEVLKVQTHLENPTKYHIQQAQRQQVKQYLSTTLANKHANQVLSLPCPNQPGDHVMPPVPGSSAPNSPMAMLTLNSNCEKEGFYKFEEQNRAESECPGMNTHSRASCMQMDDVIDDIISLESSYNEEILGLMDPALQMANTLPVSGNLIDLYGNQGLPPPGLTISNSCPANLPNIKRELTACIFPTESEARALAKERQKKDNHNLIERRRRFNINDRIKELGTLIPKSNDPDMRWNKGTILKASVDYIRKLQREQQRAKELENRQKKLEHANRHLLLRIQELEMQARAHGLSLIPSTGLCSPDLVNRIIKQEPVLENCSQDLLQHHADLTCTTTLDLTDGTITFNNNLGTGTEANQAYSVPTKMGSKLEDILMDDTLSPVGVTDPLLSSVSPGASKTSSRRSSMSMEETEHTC

A-375 = assay: MITF: Counter assay: A375 proliferation Measured in Cell-Based System Using Plate Reader - 2084-03_Inhibitor_Dose_DryPowder_Activity. [Related pubchem assays (depositor defined):AID488944]; type: functional; settings: Homo sapiens
INS1 = assay: INS-1E survival protection against cytokine death – cell-based, luminescence, retest, dose response (AID 449756); type: functional; settings: Rattus norvegicus;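 note: cell death triggered by IL-1 beta plus TNF-alpha plus IFN-gamma mixture; protective hits raise ATP signal compared with cytokine alone wells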

**Q.** With COc1cc(OC)c2ccc(=O)oc2c1C(CC(=O)N1CCCC(C)C1)c1ccc2c(c1)OCO2 (centres undefined) as the compound, how does the IC50 [1] read?
**A.** Its IC50 is 14.3 µM (active).

**Q.** With O=C(CSc1nc2c(sc3ccccc32)c(=O)n1CCO)NCc1ccco1 as the compound, how does the IC50 [1] read?
**A.** The IC50 was 8.39 µM (active).

**Q.** For O=C(N/N=C/c1ccccc1F)c1cc2c(ccc3ccccc32)o1, which IC50 [1] is on record?
**A.** The IC50 was 4.45 µM (active).

**Q.** And the IC50 [2]?
**A.** Its IC50 is 18.2 µM (active).

**Q.** What about the IC50 [3] of the same compound?
**A.** The IC50 was > 100 µM (inactive).

**Q.** And the IC50 (Prothrombin)?
**A.** The IC50 was 77.5 µM (active).

**Q.** For Oc1c(Br)cc(Br)cc1/C=N/c1nc2c(s1)CCCC2, which EC50 [4] is on record?
**A.** The EC50 was 7.39 µM (active).

**Q.** And the EC50 (Streptococcus)?
**A.** The EC50 was 7.68 µM (active).

**Q.** What about the IC50 [5] of the same compound?
**A.** The IC50 was 13.2 µM (active).

**Q.** For O=C(O/N=C(/c1ccccc1)c1ccncc1)c1ccccc1[N+](=O)[O-], which IC50 [5] is on record?
**A.** Its IC50 is 13.2 µM (active).

**Q.** What does the source list for COc1ccc(C(=O)/C(C#N)=N/Nc2ccc([N+](=O)[O-])cc2)cc1?
**A.** IC50 [6]: > 80 µM (inactive); AC50 [7]: 8.26 µM (active); AC50 (A-375): 28.8 µM (active); AC50 (INS1): 1.9 µM (active)
